Experimental data taken from EP1770089A1, “Pyranodibenzofuran derivatives with antifungal and antibacterial activity” (priority 2005, dated 2007).
In brackets after ≈: the same amount, converted by molar mass. Like-named read-outs stand apart in the source and are kept apart here.

How the values were obtained:
[1] = tested on: Candida albicans; experiment: In vitro activity (MIC99) against Candida albicans; type: cell-based
Method: The antifungal activity of compounds 5, 9, and 11-22 against Candida albicans was analyzed by the measure of the MIC99 concentration (see Table 1). Table 1. In Vitro Activity against Candida albicans of pyranodibenzofuran derivatives

[2] = tested on: Mycobacterium smegmatis mc^2155; experiment: Mycobacterial growth inhibition in liquid culture (MIC99); type: cell-based; conditions: Mycolicibacterium smegmatis, MC2155|MC^2155, 48 h, two-day's growth at 37°C, 99% decrease vs DMSO control
[3] = tested on: Mycobacterium tuberculosis H37Rv; experiment: Mycobacterial growth inhibition in liquid culture, CFU plating (MIC99); type: cell-based; conditions: Mycobacterium tuberculosis, H37RV; for MIC99: 504 h; for MIC: summary statement, read-out: MIC measured on M. tuberculosis
[4] = tested on: M. tuberculosis H37Ra; experiment: Growth inhibition in liquid culture, CFU plating (MIC99); type: cell-based; conditions: Mycobacterium tuberculosis
[5] = tested on: M. bovis BCG (Pasteur); experiment: microbe, parasite or virus in culture; type: cell-based; conditions: Mycobacterium tuberculosis variant bovis BCG
[6] = tested on: M. microti (MYC-942272); experiment: Growth inhibition in liquid culture, CFU plating (MIC99); type: cell-based
[7] = tested on: murine bone marrow macrophages infected by M. tuberculosis H37Rv; experiment: Antibacterial activity on infected bone marrow macrophages (CFU count of lysates); type: cell-based
[8] = tested on: Mycobacterium tuberculosis H37Rv; design: species or system C57BL/6 and BalbC mice; conditions: mouse, in vivo
[9] = tested on: Pneumococcus pneumoniae; experiment: Growth inhibition in liquid medium, CFU plating (MIC99); type: cell-based; conditions: Gram-positive
[10] = tested on: Corynebacterium jeikeium; experiment: as above; type: cell-based; conditions: Actinomycetes
Method: (§1) To further assess its specificity, effect of compounds 9 and 16 was also assessed in vitro growth in liquid medium on a whole range of bacteria (Corynebacterium jeikeium, Escherichia coli, Enterococcus faecalis, Klebsiella oxytoca, Nocardia asteroides, Staphylococcus aureus, Pseudomonas aeruginosa and Streptomyces). Compounds were solubilized in dimethylsulfoxide (DMSO) and 100 µl of the appropriate dilution were added to a 5 ml culture with predetermined bacterium inoculum. Quantification of the bacteria was carried out by plating on appropriate agar serial 5-fold dilutions in medium, and colony forming units (CFUs) were ascertained after 24 to 48 hours according to the strains. Table 5. Antibacterial activity of compounds 9 and 16 on other bacteria

[11] = tested on: Enterococcus faecalis; experiment: as above; type: cell-based; conditions: Gram-positive
Method: as §1

[12] = tested on: Escherichia coli; experiment: as above; type: cell-based; conditions: Gram-negative
Method: as §1

[13] = tested on: Klebsiella oxytoca; experiment: as above; type: cell-based; conditions: Gram-negative
Method: as §1

[14] = tested on: Nocardia asteroides; experiment: as above; type: cell-based; conditions: Actinomycetes
Method: as §1

[15] = tested on: Pseudomonas aeruginosa; experiment: as above; type: cell-based; conditions: Gram-negative
Method: as §1

[16] = tested on: Staphylococcus aureus; experiment: as above; type: cell-based; conditions: Gram-positive
Method: as §1

[17] = tested on: Streptomyces Subspec; experiment: as above; type: cell-based; conditions: Actinomycetes
Method: as §1

[18] = tested on: L1210 cells; experiment: Cytotoxicity, MTA (Microculture Tetrazolium Assay) test; type: cell-based; conditions: Mus musculus, cytotoxicity on L1210 cells, read-out: IC50
Method: The cytotoxicity of compounds 5, 9, and 10-21 was determined in L1210 cells using the MTA (Microculture Tetrazolium Assay) test.

[19] = tested on: Macrophages; experiment: Cytotoxicity, MTT test; type: cell-based; conditions: cytotoxicity on macrophages
Method: (§2) The cytotoxicity of compounds 9 and 16 was further assessed in various mammalian cell lines using the MTT test. RAW and A549 cell lines were maintained in RPMI 1640 medium without L-GLU supplemented with 10% Fetal calf serum (FCS), penicillin-streptomycin solution 1 % at 37 °C in air with 5 % CO2. VERO cell lines were maintained in D-MEM medium without L-GLU supplemented with 10% Fetal calf Serum (FCS), penicillin-streptomycin solution 1 % at 37 °C in air with 5 % CO2. Proliferating cells were seeded for 96-well microtitration plates at a density of 5. 10^5 cells/mL which were further incubated for 24 h at 37°C under 5 % CO2 in air before each assay. Various concentrations of solutions of 9 and 16 (10 µl/well) in 1.25 % dimethylsulfoxide (DMSO)) were added and then incubated for 24 hours under the above conditions. At the end of incubation, 20 µl of dimethylthiazolyl diphenyl tetrazolium bromide solution (MTT) (7.5 mg/ml) was then added into each well and further incubated for 4 h at 37°C to allow the formation of formazan. The crystals of formazan were then dissolved with 100 µl of an acidic solution (Sodium dodecyl sulfate (SDS) 10 %, HCl 10 mM). The optical density of each well was measured at 595 nm using a Multiwell plate reader. The values given are the average means of six replicates. The 50 % inhibition concentration was determined by curve fitting.

[20] = tested on: VERO cells; experiment: Cytotoxicity, MTT test; type: cell-based; conditions: for IC50: cytotoxicity on VERO cells, MTT, 24 hours; for Selectivity Index: summary statement, cell type not specified
Method: as §2

[21] = tested on: M. tuberculosis Beijing (GC1237); experiment: Growth inhibition in liquid culture, CFU plating (MIC99); type: cell-based; conditions: Mycobacterium tuberculosis
[22] = mc2155, read-out: MIC99 on M. smegmatis
[23] = H37Rv, three weeks growth in 7H9, CFU on 7H11, NI = no inhibition at 1 mg/mL, read-out: MIC99 on M. tuberculosis
[24] = M. tuberculosis H37Rv, three week growth in 7H9/OADC
[25] = Macrophage, 24 h, read-out: IC50
[26] = Chlorocebus sabaeus, Vero, 24 h, read-out: IC50
[27] = read-out: MIC99 on M. smegmatis, mc2155
[28] = M. tuberculosis H37Rv, three week growth in 7H9/OADC, read-out: MIC99

Q: Which MIC99 ([1]; Candida albicans, > 99 % inhibition of growth, read-out: MIC99 C. albicans) does the source give for CC1(C)C=Cc2c(ccc3oc4ccccc4c23)O1 [Compound 9, 3,3-dimethyl-3H-benzofuro[3,2-f][1]benzopyran] here?
A: > 600 µg/mL

Q: What about the MIC99 ([1]; Fungus, Candida albicans (table of other bacteria), read-out: MIC99) of the same compound?
A: > 600 µg/mL

Q: And the MIC99 [2, 22]?
A: 5 µg/mL (≈ 20 µM)

Q: And the MIC99 [3, 23]?
A: 5 µg/mL (≈ 20 µM)

Q: And the MIC99 [3, 24]?
A: < 5 µg/mL

Q: What about the MIC [3] of the same compound?
A: < 6.25 µg/mL

Q: And the MIC99 [4]?
A: 10 µg/mL (≈ 40 µM)

Q: And the MIC99 [5]?
A: 10 µg/mL (≈ 40 µM)

Q: What about the MIC99 [6] of the same compound?
A: 1 µg/mL (≈ 4 µM)

Q: What about the CFU ([7]; 5 µg/mL, 24 hours treatment, untreated control 4000 ± 1414) of the same compound?
A: 3000 ± 816

Q: And the CFU ([7]; 5 µg/mL, 48 hours treatment, untreated control 17500 ± 12583)?
A: 2875 ± 250

Q: What about the “reduction of bacterial load” value ([7]; 10µg/mL at 24 hours) of the same compound?
A: 60%

Q: What about the CFU ([7]; 10 µg/mL, 24 hours treatment, untreated control 4000 ± 1414) of the same compound?
A: 1500 ± 577

Q: What about the CFU ([7]; 10 µg/mL, 48 hours treatment, untreated control 17500 ± 12583) of the same compound?
A: 10000 ± 7360

Q: And the CFU ([7]; 50 µg/mL, 24 hours treatment, untreated control 4000 ± 1414)?
A: 1750 ± 1500

Q: What about the CFU ([7]; 50 µg/mL, 48 hours treatment, untreated control 17500 ± 12583) of the same compound?
A: 3800 ± 497

Q: And the “bacteria detected at 30 days post infection (bacterial load, CFU)” value [8]?
A: no bacteria was detected in 2 out of 3 mice

Q: What about the MIC99 [9] of the same compound?
A: > 500 µg/mL

Q: What about the MIC99 [10] of the same compound?
A: > 150 µg/mL

Q: What about the MIC99 [11] of the same compound?
A: > 500 µg/mL

Q: What about the MIC99 [12] of the same compound?
A: > 600 µg/mL

Q: What about the MIC99 [13] of the same compound?
A: > 600 µg/mL

Q: What about the MIC99 [14] of the same compound?
A: 12.8 µg/mL (≈ 51.1 µM)

Q: And the MIC99 [15]?
A: > 500 µg/mL

Q: And the MIC99 [16]?
A: > 100 µg/mL

Q: And the MIC99 [17]?
A: > 500 µg/mL

Q: What about the IC50 [18] of the same compound?
A: > 14 µg/mL

Q: What about the IC50 [19, 25] of the same compound?
A: > 50 µg/mL

Q: And the IC50 ([19]; 24 hours)?
A: 80 µg/mL (≈ 320 µM)

Q: And the IC50 [20, 26]?
A: > 50 µg/mL

Q: What about the IC50 [20] of the same compound?
A: 80 µg/mL (≈ 320 µM)

Q: What about the “Selectivity Index” value [20] of the same compound?
A: above 10

Q: For CC1(C)CCc2c(ccc3oc4ccccc4c23)O1 [Compound 16, 1,2-dihydro-3,3-dimethyl-3H-benzofuro[3,2-f][1]benzopyran], which MIC99 [2, 27] is on record?
A: 5 µg/mL (≈ 19.8 µM)

Q: What about the MIC99 [2, 22] of the same compound?
A: 1 µg/mL (≈ 3.96 µM)

Q: What about the MIC99 [3, 23] of the same compound?
A: 5 µg/mL (≈ 19.8 µM)

Q: And the MIC99 [3, 24]?
A: < 5 µg/mL

Q: What about the MIC [3] of the same compound?
A: < 6.25 µg/mL

Q: What about the MIC99 [21] of the same compound?
A: < 5 µg/mL

Q: What about the MIC99 [4] of the same compound?
A: 10 µg/mL (≈ 39.6 µM)

Q: What about the MIC99 [5] of the same compound?
A: 10 µg/mL (≈ 39.6 µM)

Q: And the MIC99 [10]?
A: > 150 µg/mL

Q: What about the MIC99 [11] of the same compound?
A: > 500 µg/mL

Q: What about the MIC99 [12] of the same compound?
A: > 500 µg/mL

Q: What about the MIC99 [14] of the same compound?
A: 15 µg/mL (≈ 59.4 µM)

Q: And the MIC99 [15]?
A: > 500 µg/mL

Q: And the IC50 [19, 25]?
A: > 50 µg/mL

Q: And the IC50 ([19]; 24 hours)?
A: > 100 µg/mL

Q: And the IC50 [20, 26]?
A: > 50 µg/mL

Q: And the IC50 [20]?
A: 100 µg/mL (≈ 396 µM)

Q: What about the “Selectivity Index” value [20] of the same compound?
A: above 10

Q: Which results are given for C#CC(C)(C)Oc1ccc2oc3ccccc3c2c1 [Compound 5, 2-(1,1-dimethyl-propargyloxy)-dibenzofuran]?
A: MIC99 [2, 27]: 12 µg/mL (≈ 47.9 µM); MIC99 [3, 23]: > 1000 µg/mL; MIC99 [3, 28]: > 500 µg/mL; MIC99 ([21]; read-out: MIC99): > 500 µg/mL; MIC99 [4]: > 500 µg/mL; MIC99 [5]: > 500 µg/mL; MIC99 [6]: > 500 µg/mL

Q: Which MIC99 [2, 22] does the source give for NNC(=O)c1ccncc1 [INH, isoniazid, reference compound] here?
A: 13 µg/mL (≈ 94.8 µM)

Q: And the MIC99 [3, 23]?
A: 0.1 µg/mL (≈ 0.729 µM)

Q: And the MIC99 [3, 28]?
A: 0.1 µg/mL (≈ 0.729 µM)

Q: What about the MIC99 ([21]; read-out: MIC99) of the same compound?
A: 0.1 µg/mL (≈ 0.729 µM)

Q: And the MIC99 [4]?
A: 1 µg/mL (≈ 7.29 µM)

Q: And the MIC99 [5]?
A: 1 µg/mL (≈ 7.29 µM)

Q: What about the MIC99 [6] of the same compound?
A: 0.1 µg/mL (≈ 0.729 µM)

Q: And the IC50 [18]?
A: 14 µg/mL (≈ 102 µM)
